Legend:
SOD activity in N2 = test: SOD activity in lysate of N2; format: in vivo, Caenorhabditis elegans; settings: N2, 0.5% (w/v)
Protocol: (§1) The wild-type N2 and the oxygen sensitive mutant mev-1 of the nematode Caenorhabditis elegans were cultured in liquid medium (10 mL) containing 0.5% (w/v) D-psicose. The medium was dispensed onto plastic petri dishes having a diameter of 10 cm, and approximately 1,000 nematodes were placed in each petri dish. The nematodes were cultured in the same manner as in Example 1 except for these differences, and the samples were collected on day 6 from the start of the culturing. FIG. 5 represents the results of the comparison of SOD mRNA gene expression levels. For comparison, the RNA gene levels of mitochondria Mn-SOD and cytosol Cu/Zn-SOD were measured.
(§2) The wild-type N2 and the oxygen sensitive mutant mev-1 of the nematode Caenorhabditis elegans were grown in the same manner as in Example 4. The samples were collected on day 7 from the start of the culturing, and the SOD activity in the lysate was measured.

[1] = tested on: wild-type N2 strain of the nematode Caenorhabditis elegans; test: Nematode survival rate and average lifespan, wild-type N2; format: in vivo
Protocol: The wild-type N2 strain of the nematode Caenorhabditis elegans was used.
(§3) Complete S liquid medium (Sulston, J. E. and Brenner, S. (1974) Genetics 77, 95-104) was used for the culturing of the nematode. D-psicose or D-allose was added to the medium in 0.25% (14 mM) and 0.5% (28 mM). The Escherichia coli (E. coli) OP50 strain was added in 30 mg (wet weight/mL) to feed the worms. To exclude the effects of the germ cells on lifespan, the cell division inhibitor 2′-deoxy-5-fluorouridine (40 μM) was added.
(§4) Young worms, 4 days of age, were used for the measurements of survival rate and average lifespan. The prepared liquid medium was dispensed onto ten plastic petri dishes having a diameter of 3.5 cm (2 mL each). Ten nematodes were transferred to each petri dish (a total of 100 individuals), and cultured at 20° C. The samples were inoculated into a new medium every day until day 3, and every 2 to 3 days thereafter. Observations were made at the time of the inoculation, and the number of survived individuals was recorded.
The wild-type N2 strain of the nematode Caenorhabditis elegans was cultured, and lifespan was measured in the same manner as in Example 1, except that the D-psicose was used in 0.5% (w/v). […] The average lifespan with 0.5% D-psicose was 27 days, longer than the 23-day lifespan of the D-psicose-free control.

[2] = tested on: oxygen sensitive mutant mev-1 of the nematode Caenorhabditis elegans; test: Nematode average lifespan, oxygen sensitive mutant mev-1; format: in vivo; settings: mev-1, 0.25%, Example 3; control 12 days
Protocol: as §3, §4
The oxygen sensitive mutant mev-1 of the nematode Caenorhabditis elegans was cultured, and lifespan was measured in the same manner as in Example 1, except that the D-psicose was used in 0.25%. […] The average lifespan with 0.25% D-psicose was 16 days, longer than the 12-day lifespan of the D-psicose-free control.

catalase activity in N2 = test: Catalase activity in lysate of N2; format: in vivo, Caenorhabditis elegans; settings: N2, 0.5% (w/v), day 7, FIG. 8
Protocol: as §1
The wild-type N2 of the nematode Caenorhabditis elegans was grown in the same manner as in Example 4. The samples were collected on day 7 from the start of the culturing, and the catalase activity in the lysate was measured.

[3] = tested on: catalase genes ctl-1, ctl-2 in N2; test: Catalase mRNA gene expression in N2; format: in vivo, Caenorhabditis elegans; settings: N2, 0.5% (w/v), day 6
Protocol: as §1
The wild-type N2 and the oxygen sensitive mutant mev-1 of the nematode Caenorhabditis elegans were cultured in the same manner as in Example 4. The samples were collected on day 6 from the start of the culturing, and the catalase mRNA gene expression levels were compared. For comparison, the RNA gene levels of cytosol ctl-1 and peroxisome CTL-2 were measured.

[4] = tested on: SOD gene (Mn-SOD sod-3, Cu/Zn-SOD) in mev-1; test: SOD mRNA gene expression in mev-1 (real time quantitative RT-PCR); format: in vivo, Caenorhabditis elegans
Protocol: as §1

[5] = tested on: SOD gene (mitochondria Mn-SOD, cytosol Cu/Zn-SOD) in N2; test: SOD mRNA gene expression in N2 (real time quantitative RT-PCR); format: in vivo, Caenorhabditis elegans; settings: N2, 0.5% (w/v), day 6, FIG. 5
Protocol: as §1

SOD activity in mev-1 = test: SOD activity in lysate of mev-1; format: in vivo, Caenorhabditis elegans; settings: mev-1, 0.5% (w/v)
Protocol: as §1, §2

SMILES: O=C(CO)[C@H](O)[C@H](O)[C@H](O)CO [D-psicose]
- increase in SOD enzyme activity (SOD activity in N2; day 7): 1.5 fold
- SOD activity in the lysate (SOD activity in N2; day 7, FIG. 6): increased SOD activity
- average lifespan ([1]; N2, 0.25% (14 mM) in medium, 20° C., Example 1, control 15.8 days): 18.9 days
- increase in average lifespan vs control ([1]; N2, 0.25% in medium, Example 1): 20%
- lifespan extension ([1]; N2, 0.5% (w/v)): 17%
- average lifespan ([1]; N2, 0.5% (w/v), Example 2, control 23 days): 27 days
- average lifespan [2]: 16 days
- catalase activity in the lysate (catalase activity in N2): increased catalase activity
- increase in gene expression levels of cytoplasm-localized catalase and peroxisome catalases (ctl-1, ctl-2) [3]: 1.5 fold
- SOD mRNA gene expression level ([4]; mev-1, 0.5% (w/v), day 6, FIG. 5): increased expression
- increase in expression level of Mn-SOD (sod-3) gene ([4]; mev-1, real time quantitative RT-PCR, 0.5% (w/v), day 6): 1.7 fold
- SOD mRNA gene expression level [5]: increased expression
- increase in SOD enzyme activity (SOD activity in mev-1; day 7): 1.3 fold
- SOD activity in the lysate (SOD activity in mev-1; day 7, FIG. 6): increased SOD activity

SMILES: O=C[C@H](O)[C@H](O)[C@H](O)[C@H](O)CO [D-allose]
- average lifespan ([1]; N2, 0.5% (28 mM) in medium, 20° C., Example 1, control 12.5 days): 15.8 days
- increase in average lifespan vs control ([1]; N2, 0.5% in medium, Example 1): 26%

From patent US20160120889A1, “LIFESPAN EXTENDING AGENT” (priority 2011, published 2016)
